Here are results for nine compounds from patent US20150080329A1, “PHARMACEUTICAL COMPOSITIONS COMPRISING DHA, EPA, AND/OR GLA AND AN ANTIBIOTIC AGENT AND METHODS OF USE THEREOF” (priority 2013, published 2015).

Assay type in all cases: cell-based
One test has as its system S. aureus. Briefly: Checkerboard assay of interactions between LC-PUFAs and topical antimicrobial agents. The settings on record: n = 2, mean ± one standard deviation. The protocol: Checkerboard assays were performed according to the standard protocol published by the American Society for Microbiology to investigate the existence of synergistic antimicrobial interactions between the three LC-PUFAs and two anti-acne agents (BPO and SA) against P. acnes. Further checkerboards were performed against S. aureus for BPO, SA and four antibiotics used to treat topical staphylococcal infections (FUS, MUP, NEO and POL) with these agents being assessed separately against each of the three LC-PUFAs. Doubling dilutions of each compound were prepared in TSA or SBB and dispensed to 96-well plates in the standard checkerboard pattern. […] Control wells were dispensed with medium supplemented with the greatest concentration of solvent used in any well, while negative control wells contained just medium. Inoculums were prepared to 1×10^7 CFU/mL as above. Each well (except for negative controls) was inoculated with 5 μL of bacterial suspension. Plates were incubated as for MIC determinations above and then the presence of bacterial growth was determined for each well according to the clarity of the medium and/or the presence of suspended colonies. The FIC for each well was determined for each interaction and the lowest FICs from duplicate checkerboard assays were used to calculate a mean value that permitted interpretation of the nature of interaction between each combination of compounds Using the pre-determined MIC values, checkerboard assays were performed to detect the interactions between the LC-PUFAs and the clinical antimicrobial drugs against the growth of S. aureus. The lowest fractional inhibitory concentration (FIC) on duplicate checkerboards was used to calculate a mean FIC for each interaction, and a mean FIC ≦0.5 was defined as synergy while a mean FIC ≧4 was defined as antagonism. Against S. aureus, none of the combinations gave a mean FIC ≧4, indicating no antagonism of efficacy between the LC-PUFAs and the clinical antimicrobial agents (Table 4). […] (Table 4)

For the next test, the system named is S. aureus ATCC43300. Briefly: MIC and MBC determination by broth micro-dilution against S. aureus.
The test system of another test is P. acnes NCTC737. Put plainly: MIC and MBC determination by broth micro-dilution against P. acnes.
For test [1], the system named is ten diverse isolates of S. aureus. Put plainly: MIC50 and MBC50 against ten diverse isolates of S. aureus. The settings on record: Staphylococcus aureus; for MIC50: concentration required to inhibit 50% of ten S. aureus isolates; for MBC: concentration required to kill 50% of ten S. aureus isolates.
[2] abbreviates: S. aureus, clinical antimicrobial agents (Table 3).
The mark [3] stands for this setting: P. acnes, clinical antimicrobial agents (Table 3).
Where [4] appears, read: Staphylococcus aureus, S. aureus ATCC43300, Mueller-Hinton broth, 18-20 h, LC-PUFAs (Table 1), read-out: MIC.
[5] abbreviates: Staphylococcus aureus, S. aureus ATCC43300, kills ≧99.9% of initial inoculum, LC-PUFAs (Table 1), read-out: MBC.
Setting [6] is: Cutibacterium acnes, P. acnes NCTC737, kills ≧99.9% of initial inoculum, LC-PUFAs (Table 1), read-out: MBC.
The mark [7] stands for this setting: Cutibacterium acnes, P. acnes NCTC737, supplemented brucella broth, 48 h, LC-PUFAs (Table 1), read-out: MIC.

≈ marks a conversion by molar mass, not a printed value. Read-outs that look alike come from different tables or passages of the source.

As for `NC[C@@H]1O[C@H](O[C@H]2[C@@H](O)[C@H](O[C@@H]3[C@@H](O)[C@H](N)C[C@H](N)[C@H]3O[C@H]3O[C@H](CN)[C@@H](O)[C@H](O)[C@H]3N)O[C@@H]2CO)[C@H](N)[C@@H](O)[C@@H]1O` [NEO, neomycin], the ΣFIC is on record as 0.56 ± 0.09 in the test on S. aureus (in combination with DHA), 0.38 ± 0.00 in the test on S. aureus (in combination with EPA) and 0.19 ± 0.00 in the test with S. aureus (in combination with GLA). The compound also registered an MBC against S. aureus ATCC43300 (setting [2]) of 128 µg/mL (≈ 208 µM). Besides, in the test with S. aureus ATCC43300 (setting [2]), the MIC turned out to be 32 µg/mL (≈ 52.1 µM).

For polymyxin B, the ΣFIC with S. aureus (in combination with DHA) was found to be 2.00 ± 0.00; with S. aureus (in combination with EPA), 2.00 ± 0.00; in the test on S. aureus (in combination with GLA) it was 1.06 ± 0.62. Further, the MBC against S. aureus ATCC43300 (setting [2]) came out at 128 µg/mL. Also, the MIC against S. aureus ATCC43300 (setting [2]) was found to be 16 µg/mL.

For the compound `C/C(=C\C(=O)OCCCCCCCCC(=O)O)C[C@@H]1OC[C@H](C[C@@H]2O[C@H]2[C@@H](C)[C@H](C)O)[C@@H](O)[C@H]1O` [MUP], the ΣFIC in the test on S. aureus (in combination with DHA) turned out to be 1.50 ± 0.00; in the test with S. aureus (in combination with EPA), 2.00 ± 0.00; with S. aureus (in combination with GLA), 2.25 ± 0.35. Moreover, the minimal bactericidal concentration (MBC) in the test with S. aureus ATCC43300 (setting [2]) amounted to 16 µg/mL (≈ 32 µM). The same compound yielded a minimal inhibitory concentration (MIC) against S. aureus ATCC43300 (setting [2]) of 0.25 µg/mL (≈ 0.499 µM).

Take `O=C(O)c1ccccc1O` [SA]: the figures for the ΣFIC in the test on S. aureus (in combination with DHA), with S. aureus (in combination with EPA) and with S. aureus (in combination with GLA) were 1.25 ± 0.35, 0.88 ± 0.18 and 0.88 ± 0.18, respectively. Besides, the minimum bactericidal concentration (MBC) against S. aureus ATCC43300 (setting [2]) was 2048 µg/mL (≈ 14800 µM); against P. acnes NCTC737 (setting [3]) it was >4096 µg/mL. Moreover, the minimum inhibitory concentration (MIC) came out at 1024 µg/mL (≈ 7410 µM) with S. aureus ATCC43300 (setting [2]) and 64 µg/mL (≈ 463 µM) against P. acnes NCTC737 (setting [3]).

On to `CCCCC/C=C\C/C=C\C/C=C\CCCCC(=O)O` [GLA, all-cis-6,9,12-octadecatrienoic acid], for which the figures for the MIC in the test with S. aureus ATCC43300 (setting [4]) and in the test with P. acnes NCTC737 (setting [7]) were 512 µg/mL (≈ 1840 µM) and 64 µg/mL (≈ 230 µM), respectively. The MBC with S. aureus ATCC43300 (setting [5]) is 512 µg/mL (≈ 1840 µM); in test [1] it was 512 µg/mL (≈ 1840 µM); in the test with P. acnes NCTC737 (setting [6]), > 4100 µg/mL. In test [1], this compound showed an MIC50 of 512 µg/mL (≈ 1840 µM).

Regarding `CC/C=C\C/C=C\C/C=C\C/C=C\C/C=C\CCCC(=O)O` [EPA, all-cis-5,8,11,14,17-eicosapentaenoic acid], the MIC in the test with S. aureus ATCC43300 (setting [4]) and in the test on P. acnes NCTC737 (setting [7]) was 128 µg/mL (≈ 423 µM) each time. The values for the MBC (in the test with S. aureus ATCC43300 (setting [5]); in test [1]; in the test with P. acnes NCTC737 (setting [6])) were 256 µg/mL (≈ 846 µM), 256 µg/mL (≈ 846 µM) and > 4100 µg/mL, respectively. Besides, the MIC50 in test [1] was 256 µg/mL (≈ 846 µM).

Take `O=C(OOC(=O)c1ccccc1)c1ccccc1` [BPO, benzoyl peroxide]: the ΣFIC in the test with S. aureus (in combination with DHA) was 2.00 ± 0.00; with S. aureus (in combination with EPA), 1.00 ± 0.00; in the test with S. aureus (in combination with GLA), 0.56 ± 0.09. For the same compound, the MBC with S. aureus ATCC43300 (Staphylococcus aureus, ATCC43300, S. aureus, clinical antimicrobial agents (Table 3), read-out: MBC) is 512 µg/mL (≈ 2110 µM); in the test with P. acnes NCTC737 (Cutibacterium acnes, NCTC737, P. acnes, clinical antimicrobial agents (Table 3), read-out: MBC), > 4100 µg/mL. Also, the minimum inhibitory concentration (MIC) in the test on S. aureus ATCC43300 (Staphylococcus aureus, ATCC43300, S. aureus, clinical antimicrobial agents (Table 3), read-out: MIC) is 512 µg/mL (≈ 2110 µM); with P. acnes NCTC737 (Cutibacterium acnes, NCTC737, P. acnes, clinical antimicrobial agents (Table 3), read-out: MIC) it was 64 µg/mL (≈ 264 µM).

In the case of `CC/C=C\C/C=C\C/C=C\C/C=C\C/C=C\C/C=C\CCC(=O)O` [DHA, (4Z,7Z,10Z,13Z,16Z,19Z)-docosa-4,7,10,13,16,19-hexaenoic acid], the values for the MIC with S. aureus ATCC43300 (setting [4]) and with P. acnes NCTC737 (setting [7]) were 128 µg/mL (≈ 390 µM) and 32 µg/mL (≈ 97.4 µM), respectively. In addition, the MBC with S. aureus ATCC43300 (setting [5]) was 128 µg/mL (≈ 390 µM); in test [1], 256 µg/mL (≈ 779 µM); in the test on P. acnes NCTC737 (setting [6]) it was > 4100 µg/mL. The compound further came in with an MIC50 in test [1] of 128 µg/mL (≈ 390 µM).

As for `CC(=O)O[C@H]1C[C@@]2(C)[C@@H](C[C@@H](O)[C@H]3[C@@]4(C)CC[C@@H](O)[C@@H](C)[C@@H]4CC[C@@]32C)/C1=C(\CCC=C(C)C)C(=O)O` [FUS], the ΣFIC is on record as 2.00 ± 0.00 with S. aureus (in combination with DHA), 1.13 ± 0.18 with S. aureus (in combination with EPA) and 1.50 ± 0.71 in the test on S. aureus (in combination with GLA). Also, the minimum bactericidal concentration (MBC) against S. aureus ATCC43300 (setting [2]) turned out to be 8 µg/mL (≈ 15.5 µM). Also, the MIC against S. aureus ATCC43300 (setting [2]) was 0.25 µg/mL (≈ 0.484 µM).
